Experimental data reported in PubChem BioAssay (NCI).
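A five-concentration, 48-hour dose response in 96-well plates underlies each endpoint, interpolated linearly between surrounding concentrations. The concentration for 50% growth inhibition is given as GI50. The concentration for full growth arrest is given as TGI.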

Columns and labels:
Test in all cases: NCI anticancer screen, dose series, 48 h
[1] = system: SN12C renal
[2] = system: IGROV1 ovarian
[3] = system: NCI-H522 lung
[4] = system: MALME-3M melanoma
[5] = system: HOP-62 NSCLC
[6] = system: SNB-75 CNS
[7] = system: T-47D breast
[8] = system: MCF7 breast
[9] = system: LOX IMVI melanoma
[10] = system: OVCAR-8 ovarian
[11] = system: U251 CNS
[12] = system: SK-OV-3 ovarian
[13] = system: SK-MEL-2 melanoma
[14] = system: HCT-15 colon
[15] = system: OVCAR-3 ovarian
[16] = system: NCI-H23 lung
[17] = system: CAKI-1 renal
[18] = system: SF-295 CNS
[19] = system: UO-31 renal
[20] = system: SF-268 CNS
[21] = system: A498 renal
[22] = system: EKVX NSCLC
[23] = system: DU-145 prostate
[24] = system: RXF 393 renal
[25] = system: 786-0 renal
[26] = system: NCI-H226 lung
[27] = system: UACC-62 melanoma
[28] = system: CCRF-CEM leukemia
[29] = system: SNB-19 CNS
[30] = system: MDA-MB-231 breast
[31] = system: OVCAR-4 ovarian
[32] = system: M14 melanoma
[33] = system: SR leukemia
[34] = system: TK-10 renal
[35] = system: SF-539 CNS
[36] = system: K-562 leukemia
[37] = system: A549 NSCLC
[38] = system: NCI/ADR-RES ovarian
[39] = system: MOLT-4 leukemia
[40] = system: HCT-116 colon
[41] = system: RPMI-8226 leukemia
[42] = system: SW-620 colon
[43] = system: COLO 205 colon
[44] = system: HS 578T breast
[45] = system: HOP-92 NSCLC
[46] = system: MDA-N
[47] = system: HT29 colon
[48] = system: OVCAR-5 ovarian
[49] = system: HL-60(TB) leukemia
[50] = system: ACHN renal
[51] = system: UACC-257 melanoma
[52] = system: SK-MEL-5 melanoma
[53] = system: MDA-MB-435
[54] = system: SK-MEL-28 melanoma
[55] = system: HCC-2998 colon
[56] = system: NCI-H460 lung
[57] = system: KM12 colon
[58] = system: PC-3 prostate
[59] = system: BT-549 breast

CN1CCN(C2=C(Cl)C3(OCCS3)C(F)(F)C2(F)F)CC1 (stereo not given)
TGI [1]: > 100 µM | TGI [2]: > 100 µM | TGI [3]: > 100 µM | TGI [4]: > 100 µM | TGI [5]: > 100 µM | TGI [6]: > 100 µM | TGI [7]: > 100 µM | TGI [8]: > 100 µM | TGI [9]: > 100 µM | TGI [10]: > 100 µM | TGI [11]: > 100 µM | TGI [12]: > 100 µM | TGI [13]: > 100 µM | TGI [14]: > 100 µM | TGI [15]: > 100 µM | TGI [16]: > 100 µM | TGI [17]: > 100 µM | TGI [18]: > 100 µM | TGI [19]: > 100 µM | TGI [20]: > 100 µM | TGI [21]: > 100 µM | TGI [22]: > 100 µM | TGI [23]: > 100 µM | TGI [24]: > 100 µM | TGI [25]: > 100 µM | TGI [26]: > 100 µM | TGI [27]: > 100 µM | TGI [28]: > 100 µM | TGI [29]: > 100 µM | TGI [30]: > 100 µM | TGI [31]: > 100 µM | TGI [32]: > 100 µM | TGI [33]: > 100 µM | TGI [34]: > 100 µM | TGI [35]: > 100 µM | TGI [36]: > 100 µM | TGI [37]: > 100 µM | TGI [38]: > 100 µM | TGI [39]: > 100 µM | TGI [40]: > 100 µM | TGI [41]: > 100 µM | TGI [42]: > 100 µM | TGI [43]: > 100 µM | TGI [44]: > 100 µM | TGI [45]: > 100 µM | TGI [46]: > 100 µM | TGI [47]: > 100 µM | TGI [48]: > 100 µM | TGI [49]: > 100 µM | TGI [50]: > 100 µM | TGI [51]: > 100 µM | TGI [52]: 61.7 µM | TGI [53]: > 100 µM

CN(C)c1cccc2c1C(=O)C=CC21c2ccc(N(C)C)c3c(N(C)C)ccc(c23)C(c2ccccc2)C1c1ccccc1 (stereo not given)
TGI [1]: 32.7 µM | TGI [2]: 29.3 µM | TGI [54]: 37.5 µM | TGI [3]: 47.7 µM | TGI [4]: 35.6 µM | TGI [5]: 39.2 µM | TGI [6]: 30.9 µM | TGI [8]: 36.9 µM | TGI [9]: 33.7 µM | TGI [10]: 27.3 µM | TGI [11]: 25.8 µM | TGI [12]: 31.8 µM | TGI [14]: 66.8 µM | TGI [15]: 31.2 µM | TGI [16]: 75.3 µM | TGI [17]: 17.2 µM | TGI [18]: 32.7 µM | TGI [19]: 12.2 µM | TGI [20]: 53.9 µM | TGI [21]: 22 µM | TGI [22]: 54.8 µM | TGI [23]: > 100 µM | TGI [24]: 36.3 µM | TGI [25]: 22.3 µM | TGI [26]: 39.2 µM | TGI [27]: 54.7 µM | TGI [28]: 37.7 µM | TGI [55]: 45.6 µM | TGI [29]: 44.4 µM | TGI [30]: 28.9 µM | TGI [31]: 27.2 µM | TGI [56]: 61.5 µM | TGI [32]: 31.1 µM | TGI [33]: 55.1 µM | TGI [34]: 25.5 µM | TGI [35]: 26 µM | TGI [36]: > 100 µM | TGI [57]: 31.3 µM | TGI [37]: 71.7 µM | TGI [38]: 58.9 µM | TGI [39]: 6.82 µM | TGI [40]: 52.6 µM | TGI [41]: 49.3 µM | TGI [42]: 54 µM | TGI [43]: 25.7 µM | TGI [44]: 45.3 µM | TGI [45]: 28.6 µM | TGI [46]: 37 µM | TGI [47]: 44.9 µM | TGI [48]: 81.7 µM | TGI [49]: 22.6 µM | TGI [50]: 26.6 µM | TGI [51]: 27.2 µM | TGI [52]: 27.5 µM | TGI [58]: 30.2 µM | TGI [53]: 30.2 µM

COc1ccc(C2=C(N3CCc4ccccc43)C(=O)NC2=O)cc1
GI50 [1]: > 25 µM | TGI [1]: > 25 µM | GI50 [2]: > 25 µM | TGI [2]: > 25 µM | GI50 [54]: > 25 µM | TGI [54]: > 25 µM | GI50 [3]: > 17.9 µM | TGI [3]: > 25 µM | GI50 [4]: > 25 µM | TGI [4]: > 25 µM | GI50 [5]: > 25 µM | TGI [5]: > 25 µM | GI50 [6]: > 24.1 µM | TGI [6]: > 25 µM | GI50 [7]: > 17.8 µM | TGI [7]: > 25 µM | GI50 [8]: > 25 µM | TGI [8]: > 25 µM | GI50 [9]: > 25 µM | TGI [9]: > 25 µM | GI50 [10]: > 25 µM | TGI [10]: > 25 µM | GI50 [11]: > 25 µM | TGI [11]: > 25 µM | GI50 [12]: > 25 µM | TGI [12]: > 25 µM | GI50 [13]: > 25 µM | TGI [13]: > 25 µM | GI50 [14]: > 25 µM | TGI [14]: > 25 µM | GI50 [15]: > 25 µM | TGI [15]: > 25 µM | GI50 [16]: > 25 µM | TGI [16]: > 25 µM | GI50 [17]: > 25 µM | TGI [17]: > 25 µM | GI50 [18]: > 25 µM | TGI [18]: > 25 µM | GI50 [19]: 9.88 µM | TGI [19]: > 25 µM | GI50 [20]: > 25 µM | TGI [20]: > 25 µM | GI50 [21]: > 16.6 µM | TGI [21]: > 25 µM | GI50 [22]: > 24 µM | TGI [22]: > 25 µM | GI50 [23]: > 25 µM | TGI [23]: > 25 µM | GI50 [24]: > 25 µM | TGI [24]: > 25 µM | GI50 [25]: > 25 µM | TGI [25]: > 25 µM | GI50 [26]: > 25 µM | TGI [26]: > 25 µM | GI50 [59]: 24.2 µM | TGI [59]: > 25 µM | GI50 [27]: > 19.9 µM | TGI [27]: > 25 µM | GI50 [28]: 2.73 µM | TGI [28]: > 11.7 µM | GI50 [55]: > 25 µM | TGI [55]: > 25 µM | GI50 [29]: > 25 µM | TGI [29]: > 25 µM | GI50 [30]: > 22.4 µM | TGI [30]: > 25 µM | GI50 [31]: > 25 µM | TGI [31]: > 25 µM | GI50 [56]: > 25 µM | TGI [56]: > 25 µM | GI50 [32]: > 25 µM | TGI [32]: > 25 µM | GI50 [33]: 13.7 µM | TGI [33]: > 25 µM | GI50 [34]: > 24.2 µM | TGI [34]: > 25 µM | GI50 [35]: > 25 µM | TGI [35]: > 25 µM | GI50 [36]: > 17.4 µM | TGI [36]: > 25 µM | GI50 [57]: > 25 µM | TGI [57]: > 25 µM | GI50 [37]: > 25 µM | TGI [37]: > 25 µM | GI50 [38]: > 25 µM | TGI [38]: > 25 µM | GI50 [39]: 25 µM | TGI [39]: > 25 µM | GI50 [40]: > 25 µM | TGI [40]: > 25 µM | GI50 [41]: > 22.9 µM | TGI [41]: > 25 µM | GI50 [42]: > 25 µM | TGI [42]: > 25 µM | GI50 [43]: > 25 µM | TGI [43]: > 25 µM | GI50 [44]: > 20.9 µM | TGI [44]: > 25 µM | GI50 [45]: 0.642 µM | TGI [45]: 19.7 µM | GI50 [47]: > 25 µM | TGI [47]: > 25 µM | GI50 [48]: > 25 µM | TGI [48]: > 25 µM | GI50 [49]: > 21.1 µM | TGI [49]: > 25 µM | GI50 [50]: > 25 µM | TGI [50]: > 25 µM | GI50 [51]: > 25 µM | TGI [51]: > 25 µM | GI50 [52]: > 21.6 µM | TGI [52]: > 25 µM | GI50 [58]: > 20.2 µM | TGI [58]: > 25 µM | GI50 [53]: > 25 µM | TGI [53]: > 25 µM
